# Laboratory results from US20260083865A1, “PROSTATE SPECIFIC MEMBRANE ANTIGEN (PSMA) LIGANDS AND USE THEREOF” (priority 2022, published 2026).
# Where two headings read alike, the source gives them in different places. Numbered stars: 1 amine (or outer) side, 2 acyl side, 3 side chain; on linkers, the order of the positions; unused ones are H or OH. Bridge positions count the residues as written; N and C are the ends. Square brackets hold non-standard residues; d marks the D form. Peptide text beside a SMILES is read from it. * marks the point of attachment. ξ: configuration not given here. X3 = O=C(O)CN1CCN(CC(=O)O)CCN(CC(=O)NCCCOCCOCCOCCCN*)CCN(CC(=O)O)CC1; DOTA = O=C(O)CN1CCN(CC(=O)O)CCN(CC(=O)*)CCN(CC(=O)O)CC1; Phe(4-Cl) = N[C@@H](Cc1ccc(Cl)cc1)C(=O)O; X1 = O=C(CC1CCN([*:1])CC1)[*:2]; Cit = NC(=O)NCCC[C@H](N)C(=O)O; Suc = O=C(CCC(=O)[*:2])[*:1]; Tle = CC(C)(C)[C@H](N)C(=O)O; Nle = CCCC[C@H](N)C(=O)O; ξL = CC(C)CC(N)C(=O)O; Aib = CC(C)(N)C(=O)O; CO = O=C([*:1])[*:2]; Ahx = NCCCCCC(=O)O; NHBu = CCCCN*
# What was measured:
# [1] = target: T1, PSMA-expressing C4-2 cells (Homo sapiens, UniProt Q04609); assay: FACS binding assay (competition with 50 nM PSM-0183); conditions: read-out: pIC50 [C4-2] CAT (converted)
# T1 construct: PSMA-expressing C4-2 cells (ATCC, Cat. No. CRL-3314) were cultured in RPMI-1640; host or cells: C4-2 cells
# Procedure, shortened: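 Competition format: fluorescent tracer PSM-0183 (50 nM) displaced from PSMA on C4-2 cells by a test compound titration over 1 h at 4 °C. Bound tracer was quantified as flow-cytometric AF488 median fluorescence after washing. Four-parameter logistic fits of MFI data gave IC50 and pIC50.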
# [2] = target: T2, Fc-fusion protein of human PSMA (hPSMA-Fc) (Homo sapiens, UniProt Q04609); assay: Surface plasmon resonance assay (Biacore T200, single cycle kinetic); assay type: binding; conditions: read-out: pKD CAT (converted)
# T2 construct: purchased Acro Biosystems PSA-H5264
# Procedure, shortened: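 KD, expressed as pKD, came from 1:1 Langmuir fits of reference- and buffer-blank-subtracted SPR data. The runs were single-cycle kinetics at 25° C in HBST/0.1% DMSO over human PSMA-Fc, captured to ~1000 RU on a peptide-coated CM5 surface and regenerated with 10 mM glycine pH 1.5.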
# [3] = FACS binding, PSMA-expressing C4-2 cells, pIC50 category
# [4] = PSMA SPR assay, hPSMA-Fc, 25° C., pKD category
# [5] = pIC50 category of FACS binding, C4-2 cells
# [6] = pKD category for PSMA SPR activity assay, hPSMA-Fc, 25° C.
# T2 sequence (Q04609 44-750 limits assumed): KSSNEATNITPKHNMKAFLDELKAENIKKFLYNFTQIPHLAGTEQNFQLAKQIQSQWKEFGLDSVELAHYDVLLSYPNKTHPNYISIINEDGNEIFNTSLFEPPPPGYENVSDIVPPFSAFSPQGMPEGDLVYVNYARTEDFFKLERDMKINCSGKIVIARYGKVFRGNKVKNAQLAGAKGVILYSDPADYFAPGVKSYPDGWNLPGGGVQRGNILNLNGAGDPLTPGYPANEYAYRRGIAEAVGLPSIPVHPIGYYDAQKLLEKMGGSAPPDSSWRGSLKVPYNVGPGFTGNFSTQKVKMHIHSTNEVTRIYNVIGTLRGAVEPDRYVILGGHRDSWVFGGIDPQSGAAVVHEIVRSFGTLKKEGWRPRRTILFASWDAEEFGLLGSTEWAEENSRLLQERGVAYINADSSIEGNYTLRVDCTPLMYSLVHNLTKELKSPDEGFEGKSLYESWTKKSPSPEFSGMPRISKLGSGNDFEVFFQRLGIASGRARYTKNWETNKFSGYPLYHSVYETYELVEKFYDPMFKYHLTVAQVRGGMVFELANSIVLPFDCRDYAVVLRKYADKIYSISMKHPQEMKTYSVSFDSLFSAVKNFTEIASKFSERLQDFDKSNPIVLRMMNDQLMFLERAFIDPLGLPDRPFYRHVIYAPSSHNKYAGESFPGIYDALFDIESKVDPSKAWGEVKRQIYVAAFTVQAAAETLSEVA
# T1 sequence (Q04609 whole entry): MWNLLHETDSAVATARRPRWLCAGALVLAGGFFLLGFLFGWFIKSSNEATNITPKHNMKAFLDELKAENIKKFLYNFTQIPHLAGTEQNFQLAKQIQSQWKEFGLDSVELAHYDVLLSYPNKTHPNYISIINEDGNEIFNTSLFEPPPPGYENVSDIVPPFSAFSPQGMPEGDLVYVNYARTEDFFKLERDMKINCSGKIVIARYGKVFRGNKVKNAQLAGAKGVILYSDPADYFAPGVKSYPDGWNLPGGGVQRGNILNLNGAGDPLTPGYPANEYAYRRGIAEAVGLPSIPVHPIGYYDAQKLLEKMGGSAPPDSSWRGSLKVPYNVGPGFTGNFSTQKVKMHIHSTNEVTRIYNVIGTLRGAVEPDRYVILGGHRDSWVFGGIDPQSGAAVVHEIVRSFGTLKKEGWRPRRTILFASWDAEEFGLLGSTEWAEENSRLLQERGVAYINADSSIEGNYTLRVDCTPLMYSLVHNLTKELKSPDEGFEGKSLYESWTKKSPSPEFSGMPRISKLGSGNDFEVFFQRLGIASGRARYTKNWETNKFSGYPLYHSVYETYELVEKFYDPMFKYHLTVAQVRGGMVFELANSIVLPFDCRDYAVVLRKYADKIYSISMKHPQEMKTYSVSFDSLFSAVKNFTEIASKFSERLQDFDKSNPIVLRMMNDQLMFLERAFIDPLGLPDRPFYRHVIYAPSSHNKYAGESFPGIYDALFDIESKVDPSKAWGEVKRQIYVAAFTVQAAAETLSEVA
Compound,"IC50 [1, 3] [nM]","Kd [2, 4] [nM]","IC50 [1, 5] [nM]","Kd [2, 6] [nM]",other results
"CC(C)CC(NC(=O)[C@@H]1CSSC[C@H](NC(=O)[C@H](Cc2ccccc2)NC(=O)[C@H](C)NC(=O)[C@@H](NC(=O)CCC(=O)NCCCOCCOCCOCCCNC(=O)CN2CCN(CC(=O)O)CCN(CC(=O)O)CCN(CC(=O)O)CC2)[C@@H](C)O)C(=O)N[C@@H](CCCCN)C(=O)N[C@@H](CCCNC(=N)N)C(=O)N[C@@H](C)C(=O)N[C@@H](CC(N)=O)C(=O)N1)C(=O)N[C@H](C(N)=O)[C@@H](C)O (stereo partly drawn) [PSM-0305, DOTA-Ttds-Thr-Ala-Phe-[Cys-Lys-Arg-Ala-Asn-Cys]-Lou-Thr-NH2] ({X3-Suc}-TAFCKRANC[ξL]T-NH2; disulfide 4-9)",200 to 1260,126 to 501,–,–,–
"CCCCNC(=O)N[C@H](C(=O)NC(C)(C)C(=O)N[C@@H](Cc1ccccc1)C(=O)N[C@H]1CSSC[C@@H](C(=O)N[C@H](C(=O)N[C@H](C(=O)N2CCC(CC(=O)N[C@H](CCCCNC(=O)CN3CCN(CC(=O)O)CCN(CC(=O)O)CCN(CC(=O)O)CC3)C(N)=O)CC2)[C@@H](C)O)C(C)(C)C)NC(=O)[C@H](CC(N)=O)NC(=O)C(C)(C)NC(=O)[C@H](CCCNC(=N)N)NC(=O)[C@H](CCCCN)NC1=O)[C@@H](C)O [PSM-0484, nBuCAyl-Thr-Aib-Phe-[Cys-Lys-Arg-Aib-Asn-Cys]-Tle-Thr-Cmp-lys(DOTA)-NH2] ({NHBu-CO}-T[Aib]FCKR[Aib]NC[Tle]T[X1][dK](DOTA)-NH2; disulfide 4-9)",–,–,< 200,< 12.6,–
"CC(=O)N[C@H](C(=O)NC(C)(C)C(=O)N[C@@H](Cc1ccc(Cl)cc1)C(=O)N[C@H]1CSSC[C@@H](C(=O)N[C@H](C(=O)N[C@H](C(=O)N2CCC(CC(=O)N[C@H](CCCCNC(=O)CN3CCN(CC(=O)O)CCN(CC(=O)O)CCN(CC(=O)O)CC3)C(N)=O)CC2)[C@@H](C)O)C(C)(C)C)NC(=O)[C@H](CC(N)=O)NC(=O)C(C)(C)NC(=O)[C@H](CCCNC(N)=O)NC(=O)[C@H](CCCCN)NC1=O)[C@@H](C)O [PSM-0329, Ac-Thr-Aib-Pcf-[Cys-Lys-Cit-Aib-Asn-Cys]-Tle-Thr-Cmp-lys(DOTA)-NH2] (Ac-T[Aib][Phe(4-Cl)]CK[Cit][Aib]NC[Tle]T[X1][dK](DOTA)-NH2; disulfide 4-9)",< 200,12.6 to 126,–,–,–
"CC(=O)N[C@H](C(=O)NC(C)(C)C(=O)N[C@@H](Cc1ccccc1)C(=O)N[C@H]1CSSC[C@@H](C(=O)N[C@H](C(=O)N[C@H](C(N)=O)[C@@H](C)O)C(C)(C)C)NC(=O)[C@H](Cc2c[nH]c3ccccc23)NC(=O)C(C)(C)NC(=O)[C@H](CCCNC(=N)N)NC(=O)[C@H](CCCCN)NC1=O)[C@@H](C)O [PSM-0589, Ac-Thr-Aib-Phe-[Cys-Lys-Arg-Aib-Trp-Cys]-Tle-Thr-NH2] (Ac-T[Aib]FCKR[Aib]WC[Tle]T-NH2; disulfide 4-9)",–,–,–,–,"IC50 ([1]; FACS binding, C4-2 cells, category): < 200 nM; Kd ([2]; PSMA SPR assay, category): < 12.6 nM"
"C[C@@H](O)[C@H](NC(=O)[C@@H](NC(=O)[C@@H]1CSSC[C@H](NC(=O)[C@H](Cc2ccccc2)NC(=O)C(C)(C)NC(=O)CCCCCNC(=O)CN2CCN(CC(=O)O)CCN(CC(=O)O)CCN(CC(=O)O)CC2)C(=O)N[C@@H](CCCCN)C(=O)N[C@@H](CCCNC(=N)N)C(=O)NC(C)(C)C(=O)N[C@@H](CC(N)=O)C(=O)N1)C(C)(C)C)C(N)=O [PSM-0513, DOTA-Ahx-Aib-Phe-[Cys-Lys-Arg-Aib-Asn-Cys]-Tle-Thr-NH2] ({DOTA-Ahx}-[Aib]FCKR[Aib]NC[Tle]T-NH2; disulfide 3-8)",–,–,< 200,< 12.6,–

# Further lines, with some results ahead:
"IC50 [1, 3] [nM]","Kd [2, 4] [nM]","IC50 [1, 5] [nM]","Kd [2, 6] [nM]",Compound,other results
1260 to 3160,12.6 to 126,–,–,"CCCC[C@H](NC(=O)[C@@H]1CSSC[C@H](NC(=O)[C@H](Cc2ccccc2)NC(=O)[C@H](C)NC(=O)[C@@H](NC(C)=O)[C@@H](C)O)C(=O)N[C@@H](CCCCN)C(=O)N[C@@H](CCCNC(=N)N)C(=O)N[C@@H](C)C(=O)N[C@@H](C)C(=O)N1)C(=O)N[C@H](C(=O)N[C@@H](CC(=O)O)C(N)=O)[C@@H](C)O [PSM-0335, Ac-Thr-Ala-Phe-[Cys-Lys-Arg-Ala-Ala-Cys]-Nle-Thr-Asp-NH2] (Ac-TAFCKRAAC[Nle]TD-NH2; disulfide 4-9)",–
–,–,< 200,< 12.6,"CC(=O)N[C@H](C(=O)NC(C)(C)C(=O)N[C@@H](Cc1ccccc1)C(=O)N[C@H]1CSSC[C@@H](C(=O)N[C@H](C(=O)N[C@@H](CCC(N)=O)C(N)=O)C(C)(C)C)NC(=O)[C@H](CC(N)=O)NC(=O)C(C)(C)NC(=O)[C@H](CCCNC(=N)N)NC(=O)[C@H](CCCCN)NC1=O)[C@@H](C)O [PSM-0540, Ac-Thr-Aib-Phe-[Cys-Lys-Arg-Aib-Asn-Cys]-Tle-Gln-NH2] (Ac-T[Aib]FCKR[Aib]NC[Tle]Q-NH2; disulfide 4-9)",–
